Assay results reported in US20220411471A1, “CELL-PERMEABLE CYCLIC PEPTIDES AND USES THEREOF” (Unnatural Products Inc., priority 2019, published 2022).
Read-outs that look alike come from different tables or passages of the source. Non-standard residues stand in square brackets, D forms with d. Residues, ends and D or L forms follow the SMILES beside them. Ala(4-thiazolyl) = N[C@@H](Cc1cscn1)C(=O)O; Phe(4-Cl) = N[C@@H](Cc1ccc(Cl)cc1)C(=O)O; Phe(4-F) = N[C@@H](Cc1ccc(F)cc1)C(=O)O; NMeF = CN[C@@H](Cc1ccccc1)C(=O)O; 3Pal = N[C@@H](Cc1cccnc1)C(=O)O; dNMeV = CN[C@@H](C(=O)O)C(C)C; Tle = CC(C)(C)[C@H](N)C(=O)O; NMeV = CN[C@H](C(=O)O)C(C)C; dPip = O=C(O)[C@H]1CCCCN1; hSer = N[C@@H](CCO)C(=O)O; NMeA = CN[C@@H](C)C(=O)O; dNMeA = CN[C@H](C)C(=O)O; Nme = COCCNCC(=O)O; Sar = CNCC(=O)O

Tests used:
Format in all cases: binding
Human MDM2 (HDM2) 1-116 [1] = target: T1, Human MDM2 (HDM2) 1-116 (Homo sapiens, UniProt Q00987); assay: Fluorescence polarization assay, MDM2/p53 (Table 3)
T1 construct: Human MDM2 (HDM2) 1-116
Description: (§1) Human MDM2 (HDM2) 1-116 (20 μL) and FITC-labeled p53 (18-26), 50 nM and 10 nM respectively in 10 mM Tris, 50 mM NaCl, 0.01% Tween20, and 1 mM DTT at pH 7.4 were dispensed into an opaque, black, 384 well plate. Compounds dissolved in DMSO were pin transferred (˜200 nL) to the 384 well plate containing the MDM2/p53 solution. After incubation for 10 minutes, the fluorescence polarization was read on a Molecular Devices SpectraMax plate reader equipped with a Fluorescein FP cartridge. In addition to probe alone (positive control) and probe/MDM2 (negative control), a titration of linear p53(18-26) was included on every plate as an additional control. IC50 values were fit using either Prism or Collaborative Drug Discovery.
as §1, with “and FAM-labeled RFMDYWEGL-NH2,” for “and FITC-labeled p53 (18-26),”, “NaCl, 0.010%” for “NaCl, 0.01%”, “transferred (˜100-200” for “transferred (˜200”, “for 60” for “for 10”

Human MDM2 (HDM2) 1-116 [2] = target: T1, Human MDM2 (HDM2) 1-116; assay: Fluorescence polarization assay 2, MDM2 (Table 4)
Description: as §1, with “Compounds” for “Human MDM2 (HDM2) 1-116 (20 μL) and FITC-labeled p53 (18-26), 50 nM and 10 nM respectively in 10 mM Tris, 50 mM NaCl, 0.01% Tween20, and 1 mM DTT at pH 7.4 were dispensed into an opaque, black, 384 well plate. Compounds”, “(˜100-200” for “(˜200”, “60” for “10”

Human MDM4 (HDM4) 1-114 = target: T2, Human MDM4 (HDM4) 1-114 (Homo sapiens, UniProt O15151); assay: Fluorescence polarization assay 2, MDM4 (Table 4)
T2 construct: Human MDM4 (HDM4) 1-114
T2 sequence (O15151 1-114): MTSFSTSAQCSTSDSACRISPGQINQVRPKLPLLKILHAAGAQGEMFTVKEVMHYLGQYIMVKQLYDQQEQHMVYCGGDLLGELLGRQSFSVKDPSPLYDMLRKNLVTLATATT
Description: Compounds dissolved in DMSO were pin transferred (˜100-200 nL) to the 384 well plate containing the MDM4/p53 solution. After incubation for 60 minutes, the fluorescence polarization was read on a Molecular Devices SpectraMax plate reader equipped with a Fluorescein FP cartridge. In addition to probe alone (positive control) and probe/MDM4 (negative control), a titration of linear p53(18-26) was included on every plate as an additional control. IC50 values were fit using either Prism or Collaborative Drug Discovery.

[3] = Table 4, fluorescence polarization, read-out: MDM2 IC50
[4] = Table 4, fluorescence polarization, read-out: MDM4 IC50

T1 sequence (Q00987 1-116): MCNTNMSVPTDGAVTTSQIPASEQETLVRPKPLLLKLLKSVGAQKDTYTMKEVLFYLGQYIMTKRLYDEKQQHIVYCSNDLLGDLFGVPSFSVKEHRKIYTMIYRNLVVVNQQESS

Structure (SMILES)	IC50 (Human MDM2 (HDM2) 1-116 [1]) [nM]	IC50 (Human MDM2 (HDM2) 1-116 [2]; [3]) [nM]	IC50 (Human MDM4 (HDM4) 1-114; [4]) [nM]	further results
C[C@H]1C(=O)N[C@@H](Cc2cccnc2)C(=O)N2CCC[C@@H]2C(=O)N(C)[C@@H](C)C(=O)N[C@@H](Cc2ccc(F)cc2)C(=O)N[C@@H](C(C)(C)C)C(=O)N[C@@H](Cc2ccc(Cl)cc2)C(=O)N2CCCC[C@@H]2C(=O)N2CCC[C@H]2C(=O)N[C@@H](Cc2ccccc2)C(=O)N1C [Compound 26, C[C@@H]1N(C)C(=O)[C@H]2CCCN2C(=O)[C@H](Cc2cccnc2)NC(=O)[C@H](C)N(C)C(=O)[C@H](Cc2ccccc2)NC(=O)[C@@H]2CCCN2C(=O)[C@H]2CCCCN2C(=O)[C@H](Cc2ccc(Cl)cc2)NC(=O)[C@@H](NC(=O)[C@H](Cc2ccc(F)cc2)NC1=O)C(C)(C)C] (cyclo([3Pal][dP][NMeA][Phe(4-F)][Tle][Phe(4-Cl)][dPip]PF[NMeA]))	< 1000			
CC(C)[C@H]1C(=O)N[C@@H](Cc2cccnc2)C(=O)N2CCC[C@@H]2C(=O)N(C)[C@@H](C)C(=O)N[C@@H](Cc2ccc(F)cc2)C(=O)N[C@@H](C(C)(C)C)C(=O)N[C@@H](Cc2ccc(Cl)cc2)C(=O)N2CCCC[C@@H]2C(=O)N2CCC[C@H]2C(=O)N[C@@H](Cc2ccccc2)C(=O)N1C [Compound 27, CC(C)[C@@H]1N(C)C(=O)[C@H](Cc2ccccc2)NC(=O)[C@@H]2CCCN2C(=O)[C@H]2CCCCN2C(=O)[C@H](Cc2ccc(Cl)cc2)NC(=O)[C@@H](NC(=O)[C@H](Cc2ccc(F)cc2)NC(=O)[C@H](C)N(C)C(=O)[C@H]2CCCN2C(=O)[C@H](Cc2cccnc2)NC1=O)C(C)(C)C] (cyclo([3Pal][dP][NMeA][Phe(4-F)][Tle][Phe(4-Cl)][dPip]PF[NMeV]))	1000 to 2500			
C[C@H]1C(=O)N[C@@H](Cc2ccc(Cl)cc2)C(=O)N2CCCC[C@@H]2C(=O)N2CCC[C@H]2C(=O)N[C@@H](Cc2ccccc2)C(=O)N[C@@H](C(C)(C)C)C(=O)N[C@@H](Cc2cccnc2)C(=O)N2CCCC[C@@H]2C(=O)N(C)[C@@H](C)C(=O)N[C@@H](Cc2ccc(F)cc2)C(=O)N1C [Compound 28, C[C@@H]1N(C)C(=O)[C@H]2CCCCN2C(=O)[C@H](Cc2cccnc2)NC(=O)[C@@H](NC(=O)[C@H](Cc2ccccc2)NC(=O)[C@@H]2CCCN2C(=O)[C@H]2CCCCN2C(=O)[C@H](Cc2ccc(Cl)cc2)NC(=O)[C@H](C)N(C)C(=O)[C@H](Cc2ccc(F)cc2)NC1=O)C(C)(C)C] (cyclo([3Pal][dPip][NMeA][Phe(4-F)][NMeA][Phe(4-Cl)][dPip]PF[Tle]))	1000 to 2500			
COCCN1CC(=O)N(C)[C@@H](C)C(=O)N[C@@H](Cc2ccc(F)cc2)C(=O)N[C@@H](C(C)(C)C)C(=O)N[C@@H](Cc2ccc(Cl)cc2)C(=O)N2CCCC[C@@H]2C(=O)N2CCC[C@H]2C(=O)N[C@@H](Cc2ccccc2)C(=O)N[C@@H](C(C)(C)C)C(=O)N[C@@H](Cc2cccnc2)C1=O [Compound 29, COCCN1CC(=O)N(C)[C@@H](C)C(=O)N[C@@H](Cc2ccc(F)cc2)C(=O)N[C@H](C(=O)N[C@@H](Cc2ccc(Cl)cc2)C(=O)N2CCCC[C@@H]2C(=O)N2CCC[C@H]2C(=O)N[C@@H](Cc2ccccc2)C(=O)N[C@H](C(=O)N[C@@H](Cc2cccnc2)C1=O)C(C)(C)C)C(C)(C)C] (cyclo([3Pal][Nme][NMeA][Phe(4-F)][Tle][Phe(4-Cl)][dPip]PF[Tle]))	< 1000			
COCCN1CC(=O)N(C)[C@@H](C)C(=O)N[C@@H](Cc2ccc(F)cc2)C(=O)N(C)[C@@H](C)C(=O)N[C@@H](Cc2ccc(Cl)cc2)C(=O)N2CCCC[C@@H]2C(=O)N2CCC[C@H]2C(=O)N[C@@H](Cc2ccccc2)C(=O)N[C@@H](C(C)(C)C)C(=O)N[C@@H](Cc2ccc(O)cc2)C1=O [Compound 30, [H]Oc1ccc(C[C@@H]2NC(=O)[C@@H](NC(=O)[C@H](Cc3ccccc3)NC(=O)[C@@H]3CCCN3C(=O)[C@H]3CCCCN3C(=O)[C@H](Cc3ccc(Cl)cc3)NC(=O)[C@H](C)N(C)C(=O)[C@H](Cc3ccc(F)cc3)NC(=O)[C@H](C)N(C)C(=O)CN(CCOC)C2=O)C(C)(C)C)cc1] (cyclo(F[Tle]Y[Nme][NMeA][Phe(4-F)][NMeA][Phe(4-Cl)][dPip]P))	2500 to 5000			
COCCN1CC(=O)N(C)[C@@H](C)C(=O)N[C@@H](Cc2ccc(F)cc2)C(=O)N(C)[C@@H](C)C(=O)N[C@@H](Cc2ccc(Cl)cc2)C(=O)N(C)[C@H](C(C)C)C(=O)N2CCC[C@H]2C(=O)N[C@@H](Cc2ccccc2)C(=O)N[C@@H](C(C)(C)C)C(=O)N[C@@H](Cc2ccc(O)cc2)C1=O [Compound 31, [H]Oc1ccc(C[C@@H]2NC(=O)[C@@H](NC(=O)[C@H](Cc3ccccc3)NC(=O)[C@@H]3CCCN3C(=O)[C@@H](C(C)C)N(C)C(=O)[C@H](Cc3ccc(Cl)cc3)NC(=O)[C@H](C)N(C)C(=O)[C@H](Cc3ccc(F)cc3)NC(=O)[C@H](C)N(C)C(=O)CN(CCOC)C2=O)C(C)(C)C)cc1] (cyclo(F[Tle]Y[Nme][NMeA][Phe(4-F)][NMeA][Phe(4-Cl)][dNMeV]P))	≥ 5000			
COCC[C@@H]1NC(=O)[C@H]2CCCN2C(=O)[C@H](Cc2ccccc2)N(C)C(=O)[C@H](Cc2ccc(Cl)cc2)NC(=O)[C@H](C(C)(C)C)NC(=O)[C@H](Cc2ccc(F)cc2)NC(=O)CN(CCOC)C(=O)[C@@H](C)N(C)C(=O)[C@H](Cc2ccc(O)cc2)NC(=O)[C@H](C)N(C)C1=O [Compound 32, [H]Oc1ccc(C[C@@H]2NC(=O)[C@H](C)N(C)C(=O)[C@H](CCOC)NC(=O)[C@H]3CCCN3C(=O)[C@H](Cc3ccccc3)N(C)C(=O)[C@H](Cc3ccc(Cl)cc3)NC(=O)[C@@H](NC(=O)[C@H](Cc3ccc(F)cc3)NC(=O)CN(CCOC)C(=O)[C@@H](C)N(C)C2=O)C(C)(C)C)cc1] (cyclo([NMeA]Y[dNMeA][Nme][Phe(4-F)][Tle][Phe(4-Cl)][NMeF][dP][hSer](Me)))		< 25	> 150	
COCC[C@@H]1NC(=O)[C@H]2CCCN2C(=O)[C@H](Cc2ccccc2)N(C)C(=O)[C@H](Cc2ccc(Cl)cc2)NC(=O)CN(C)C(=O)[C@H](Cc2ccc(F)cc2)NC(=O)[C@H](C)N(C)C(=O)[C@@H](C)N(C)C(=O)[C@H](Cc2cscn2)NC(=O)[C@H](C)N(C)C1=O [Compound 33, COCC[C@@H]1NC(=O)[C@H]2CCCN2C(=O)[C@H](CC2=CC=CC=C2)N(C)C(=O)[C@H](CC2=CC=C(Cl)C=C2)NC(=O)CN(C)C(=O)[C@H](CC2=CC=C(F)C=C2)NC(=O)[C@H](C)N(C)C(=O)[C@@H](C)N(C)C(=O)[C@H](CC2=CSC=N2)NC(=O)[C@H](C)N(C)C1=O] (cyclo([Ala(4-thiazolyl)][dNMeA][NMeA][Phe(4-F)][Sar][Phe(4-Cl)][NMeF][dP][hSer](Me)[NMeA]))				IC50 (Human MDM2 (HDM2) 1-116 [2]): < 25 nM; IC50 (Human MDM4 (HDM4) 1-114): 50 to 100 nM
COCC[C@@H]1NC(=O)[C@H]2CCCN2C(=O)[C@H](Cc2ccccc2)N(C)C(=O)[C@H](Cc2ccc(Cl)cc2)NC(=O)[C@H](C)N(C)C(=O)[C@H](Cc2ccc(F)cc2)NC(=O)[C@H](C)N(C)C(=O)[C@@H](C)N(C)C(=O)[C@H](Cc2cscn2)NC(=O)[C@H](C)N(C)C1=O [Compound 34, COCC[C@@H]1NC(=O)[C@H]2CCCN2C(=O)[C@H](CC2=CC=CC=C2)N(C)C(=O)[C@H](CC2=CC=C(Cl)C=C2)NC(=O)[C@H](C)N(C)C(=O)[C@H](CC2=CC=C(F)C=C2)NC(=O)[C@H](C)N(C)C(=O)[C@@H](C)N(C)C(=O)C@H](CC2=CSC=N2)NC(=O)[C@H](C)N(C)C1=O] (cyclo([Ala(4-thiazolyl)][dNMeA][NMeA][Phe(4-F)][NMeA][Phe(4-Cl)][NMeF][dP][hSer](Me)[NMeA]))		25 to 50	> 150	
COCC[C@@H]1NC(=O)[C@H]2CCCN2C(=O)[C@H](Cc2ccccc2)N(C)C(=O)[C@H](Cc2ccc(Cl)cc2)NC(=O)[C@H](C(C)(C)C)NC(=O)[C@H](Cc2ccc(F)cc2)NC(=O)[C@H](C)N(C)C(=O)[C@@H](C)N(C)C(=O)[C@H](Cc2cscn2)NC(=O)[C@H](C)N(C)C1=O [Compound 36, COCC[C@@H]1NC(=O)[C@H]2CCCN2C(=O)[C@H](Cc2ccccc2)N(C)C(=O)[C@H](Cc2ccc(Cl)cc2)NC(=O)[C@@H](NC(=O)[C@H](Cc2ccc(F)cc2)NC(=O)[C@H](C)N(C)C(=O)[C@@H](C)N(C)C(=O)[C@H](CC2=CSC=N2)NC(=O)[C@H](C)N(C)C1=O)C(C)(C)C] (cyclo([Ala(4-thiazolyl)][dNMeA][NMeA][Phe(4-F)][Tle][Phe(4-Cl)][NMeF][dP][hSer](Me)[NMeA]))		< 25	50 to 100	
